Our source for the IC50 values is patent publication US20240391875A1, “ISOQUINOLINONES AND QUINOLINONES AS MODULATORS OF POLRMT” (Pretzel Therapeutics, Inc., priority 2021, published 2024).

For orientation: IC50 means the point on the concentration scale where inhibition reaches its midpoint. A low value points to higher potency.

Chain of POLRMT (O00411 42-1230): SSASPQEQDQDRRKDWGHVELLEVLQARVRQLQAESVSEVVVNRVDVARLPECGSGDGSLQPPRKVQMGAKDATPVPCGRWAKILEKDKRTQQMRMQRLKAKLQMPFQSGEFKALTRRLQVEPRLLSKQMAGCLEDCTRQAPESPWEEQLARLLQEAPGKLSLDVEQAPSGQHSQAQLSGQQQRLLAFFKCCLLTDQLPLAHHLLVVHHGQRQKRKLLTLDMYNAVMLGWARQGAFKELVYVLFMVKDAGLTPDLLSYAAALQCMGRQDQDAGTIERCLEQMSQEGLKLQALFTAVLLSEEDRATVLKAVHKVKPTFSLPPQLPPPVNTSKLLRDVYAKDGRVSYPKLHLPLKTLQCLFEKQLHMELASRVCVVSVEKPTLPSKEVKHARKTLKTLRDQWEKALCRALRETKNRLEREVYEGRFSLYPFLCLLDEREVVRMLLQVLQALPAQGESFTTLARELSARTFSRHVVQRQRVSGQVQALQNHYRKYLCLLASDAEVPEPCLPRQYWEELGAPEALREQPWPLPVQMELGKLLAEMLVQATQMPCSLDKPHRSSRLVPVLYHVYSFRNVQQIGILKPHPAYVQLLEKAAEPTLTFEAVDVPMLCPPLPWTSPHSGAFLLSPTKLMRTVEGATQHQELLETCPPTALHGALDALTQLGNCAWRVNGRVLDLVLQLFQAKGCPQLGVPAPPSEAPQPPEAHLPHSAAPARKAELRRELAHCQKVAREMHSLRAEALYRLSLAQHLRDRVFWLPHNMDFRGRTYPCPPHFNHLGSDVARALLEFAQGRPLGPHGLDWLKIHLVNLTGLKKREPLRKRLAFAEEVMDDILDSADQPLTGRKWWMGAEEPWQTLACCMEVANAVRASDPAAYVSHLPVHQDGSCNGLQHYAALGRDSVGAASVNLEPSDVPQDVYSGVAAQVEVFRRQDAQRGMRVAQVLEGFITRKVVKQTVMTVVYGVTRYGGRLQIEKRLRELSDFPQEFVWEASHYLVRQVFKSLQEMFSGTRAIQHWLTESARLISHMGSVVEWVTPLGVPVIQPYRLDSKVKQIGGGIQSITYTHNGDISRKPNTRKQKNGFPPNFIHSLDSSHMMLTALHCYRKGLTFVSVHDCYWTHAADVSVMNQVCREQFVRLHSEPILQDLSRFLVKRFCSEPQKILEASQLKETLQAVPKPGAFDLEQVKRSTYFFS

For one test, the target named is POLRMT (Homo sapiens, UniProt O00411). Briefly: homogeneous TR-FRET assay of mitochondrial transcription (inhibition of POLRMT). The format is biochemical. The note with it: isoquinolinone compounds (Table 1). How it is done:
The inhibitory activity of the compounds of the present invention against POLRMT were determined by assays based on Bergbrede, T., et al., “An adaptable high-throughput technology enabling the identification of specific transcription modulators,” SLAC Discov., 22, 378-386 (2017).
The ability of some compounds of the present invention to inhibit POLRMT were determined in a homogeneous TR-FRET Assay using high-throughput screening in a 384-well plate format. This method is used to monitor the activity of mitochondrial transcription through measurement of its product, a 407 bp long RNA transcript. Detection of the product is facilitated by hybridization of two DNA-oligonucleotide probes to specific and adjacent sequences within the RNA product sequence. Upon annealing of the probes, two fluorophores are coupled directly to an acceptor nucleotide probe (ATTO647, 5′), or introduced via a coupled streptavidin with a biotinylated donor nucleotide probe (Europium cryptate) that is brought into sufficient proximity to serve as a fluorescence-donor-acceptor pair. Thus, a FRET signal at 665 nm is generated upon excitation at 340 nm.
Proteins used as transcription factors (POLRMT: NP_005026.3, TFAM: NP_003192.1, TFB2M: NP_071761.1) are diluted from their stocks to working concentrations of 1 μM, 20 μM and 4 μM respectively, in a dilution buffer containing 20 mM Tris-HCl (pH 8.0), 200 mM NaCl, 10% (v/v) glycerol, 1 mM Dithiothreitol (DTT), 0.5 mM EDTA.
DNA template is a pUC18 plasmid with the mitochondrial light strand promotor sequence (1-477) cloned between HindIII and BamHI sites. The DNA template is restriction linearized proximal to the promotor 3′-end (pUC-LSP).
The reaction mixture (10 uL) containing 7.5 nM POLRMT, 15 nM of TFB2M, 30 nM of TFAM, 0.5 nM of DNA template and 500 μM nucleotide triphosphate mix (NTPs) in a reaction buffer (containing 10 mM Tris-HCl (pH 7.5), 10 mM MgCl2, 40 mM NaCl, 10 mM DTT, 0.005% (w/v) Tween-20, 160 units/ml Rnase inhibitor and 0.1 mg/mL BSA) are dispensed to compounds in microplates, using a Thermo Multidrop® dispenser, and incubated at 37° C. in a VWR INCU-Line incubator for 60 minutes after mixing. No nucleotide triphosphate mix is added to negative control samples. Microplates with compounds to be tested in the assay are prepared from 10 mM compound stocks in 100% DMSO, equal amounts of DMSO without any compound are added to positive control and negative control samples.
During the incubation, a mix of the detection reagents is prepared in a buffer such that the enzymatic reaction is terminated due to chelating of Mg-ions and increased ionic strength, containing 50 mM Tris-HCl (pH 7.5), 700 mM NaCl, 20 mM EDTA, and 0.010% (w/v) Tween-20. Europium-streptavidin is pre-incubated with a 200-fold molar excess of a random sequence oligonucleotide to block unspecific binding of oligo, for two hours at ambient temperature in the dark. Afterwards, the blocked Europium-streptavidin is kept on ice until use.
At the end of the enzymatic reaction time, 5 μL detection oligo mix in the detection buffer is added, and assay plates are mixed and kept at ambient temperature for one hour, protected from light. The concentration of the Acceptor nucleotide oligo (e.g., ATTO647N-5′-[…]-3′) and Donor nucleotide oligo (e.g., bio-5′-AACACATCTCT(-bio)GCCAAACCCCA-bio-3′) in each assay well is 1 nM, and 3 nM, respectively.
After incubation with oligo mix, 5 μL of pre-blocked Europium-streptavidin reagent is dispensed to each assay well, assay plates are again mixed and kept at ambient temperature for one hour, protected from light.
The generated signal is measured with BMG Pherastar microtiter plate reader with a TRF light unit, using excitation at 340 nm, an integration time of 200 μs, and a delay time of 100 μs, before detection at 620 nm and 665 nm. The ratio of donor- and acceptor-fluorescence is used as a measure of the generated transcript product (i.e. enzymatic activity).
The compound `C[C@@H](Oc1ccc2c(-c3ccc(F)cc3Cl)c[nH]c(=O)c2c1)C(=O)N1CC[S+]([O-])CC1` [Example 128, (R)-4-(2-chloro-4-fluorophenyl)-7-((1-(1-oxidothiomorpholino)-1-oxopropan-2-yl)oxy)isoquinolin-1(2H)-one] came in with an IC50 of 3000 nM.
Same read-out and setting: in the case of `CC(=O)N1CCC(C(=O)Nc2ccc3c(-c4ccccc4C)c[nH]c(=O)c3c2)CC1` [Example 33, 1-acetyl-N-(1-oxo-4-(o-tolyl)-1,2-dihydroisoquinolin-7-yl)piperidine-4-carboxamide] it was above 100000 nM; in that of `C[C@H]1CN(C(=O)[C@@H](C)Oc2ccc3c(-c4ccc(F)cc4Cl)c[nH]c(=O)c3c2)C[C@H](C)O1` (single isomer, unassigned) [Example 125], 200 nM; in that of `C[C@@H](Oc1ccc2c(-c3ccc(F)cc3Cl)c[nH]c(=O)c2c1)C(=O)N1CCCC(F)(F)C1` [Example 84, (R)-4-(2-chloro-4-fluorophenyl)-7-((1-(3,3-difluoropiperidin-1-yl)-1-oxopropan-2-yl)oxy)isoquinolin-1(2H)-one], 80 nM.
The same measure, in the same setting: to `C[C@H](Oc1ccc2c(-c3ccc(F)cc3Cl)c[nH]c(=O)c2c1)C(=O)N1CCC(C(=O)O)CC1` [Example 60, (S)-1-(2-((4-(2-chloro-4-fluorophenyl)-1-oxo-1,2-dihydroisoquinolin-7-yl)oxy)propanoyl)piperidine-4-carboxylic acid] belongs 39000 nM; to `CC(C#N)Oc1ccc2c(-c3ccc(F)cc3Cl)c[nH]c(=O)c2c1` (single isomer, unassigned) [Example 49, 2-((4-(2-chloro-4-fluorophenyl)-1-oxo-1,2-dihydroisoquinolin-7-yl)oxy)propanenitrile], 5000 nM; to `C[C@@H](Oc1ccc2c(-c3ccc(F)cc3Cl)c[nH]c(=O)c2c1)C(=O)N1CCN(C)CC1` [Example 131, (R)-4-(2-chloro-4-fluorophenyl)-7-((1-(4-methylpiperazin-1-yl)-1-oxopropan-2-yl)oxy)isoquinolin-1(2H)-one], 1000 nM.
Regarding `C[C@@H](Oc1ccc2c(-c3ccc(F)cc3Cl)c[nH]c(=O)c2c1)C(=O)N1CCO[C@@H](C(=O)O)C1` [Example 120, (R)-4-((R)-2-((4-(2-chloro-4-fluorophenyl)-1-oxo-1,2-dihydroisoquinolin-7-yl)oxy)propanoyl)morpholine-2-carboxylic acid], inhibition was half-maximal at 300 nM (IC50).
The same measure, in the same setting: in the case of `Cc1ccccc1-c1c[nH]c(=O)c2cc(O[C@H](C)C(=O)O)ccc12` [Example 88, (R)-2-((1-oxo-4-(o-tolyl)-1,2-dihydroisoquinolin-7-yl)oxy)propanoic acid] it was 400 nM; in that of `COc1ccc2c(-c3ccc(F)cc3Cl)c[nH]c(=O)c2c1` [Example 1, 4-(2-chloro-4-fluorophenyl)-7-methoxyisoquinolin-1(2H)-one], 10000 nM; in that of `CC(C#N)Oc1ccc2c(-c3ccccc3Cl)c[nH]c(=O)c2c1` (single isomer, unassigned) [Example 58, 2-((4-(2-chlorophenyl)-1-oxo-1,2-dihydroisoquinolin-7-yl)oxy)propanenitrile], 2000 nM.
The same measure, in the same setting: in the case of `Cc1ccccc1-c1c[nH]c(=O)c2cc(O[C@H](C)C(=O)N3CCC[C@H](C#N)C3)ccc12` [Example 77, (S)-1-((R)-2-((1-oxo-4-(o-tolyl)-1,2-dihydroisoquinolin-7-yl)oxy)propanoyl)piperidine-3-carbonitrile] it was 30 nM.
On the same count and under the same terms, in the case of `Cc1ccccc1-c1c[nH]c(=O)c2cc(OC(C)(C)C(=O)O)ccc12` [Example 119, 2-methyl-2-((1-oxo-4-(o-tolyl)-1,2-dihydroisoquinolin-7-yl)oxy)propanoic acid] it was 700 nM; in that of `Cc1ccccc1-c1c[nH]c(=O)c2cc(CO)ccc12` [Example 15, 7-(hydroxymethyl)-4-(o-tolyl)isoquinolin-1(2H)-one], 51000 nM; in that of `C[C@@H](Oc1ccc2c(-c3ccc(F)cc3Cl)c[nH]c(=O)c2c1)C(=O)N1CCN(CC(F)(F)F)CC1` [Example 118, (R)-4-(2-chloro-4-fluorophenyl)-7-((1-oxo-1-(4-(2,2,2-trifluoroethyl)piperazin-1-yl)propan-2-yl)oxy)isoquinolin-1(2H)-one], 400 nM.
With `C[C@H]1CN(C(=O)[C@@H](C)Oc2ccc3c(-c4ccc(F)cc4Cl)c[nH]c(=O)c3c2)C[C@H](C)O1` (single isomer, unassigned) [Example 124], it took 500 nM to reach half-maximal inhibition (IC50). The IC50 values of the last two compounds are within 1.5-fold of each other.
The same measure, in the same setting: in the case of `Cc1ccccc1-c1c[nH]c(=O)c2cc(OCC(=O)N(C)C)ccc12` [Example 8, N,N-dimethyl-2-((1-oxo-4-(o-tolyl)-1,2-dihydroisoquinolin-7-yl)oxy)acetamide] it was 35000 nM; in that of `COCC(C)Oc1ccc2c(-c3ccccc3C)c[nH]c(=O)c2c1` (single isomer, unassigned) [Example 26, 7-((1-methoxypropan-2-yl)oxy)-4-(o-tolyl)isoquinolin-1(2H)-one], 1000 nM.
The same measure, in the same setting: in the case of `COCc1ccc2c(-c3ccccc3C)c[nH]c(=O)c2c1` [Example 44, 7-(methoxymethyl)-4-(o-tolyl)isoquinolin-1(2H)-one] it was 2000 nM; in that of `COCC(Oc1ccc2c(-c3ccccc3C)c[nH]c(=O)c2c1)C(=O)N(C)C` (single isomer, unassigned) [Example 55, 3-methoxy-N,N-dimethyl-2-((1-oxo-4-(o-tolyl)-1,2-dihydroisoquinolin-7-yl)oxy)propenamide], 2000 nM.
On the same count and under the same terms, in the case of `Cc1ccccc1-c1c[nH]c(=O)c2cc(OCC(C)C)ccc12` [Example 6, 7-isobutoxy-4-(o-tolyl)isoquinolin-1(2H)-one] it was 200 nM.
`Cc1ccccc1-c1c[nH]c(=O)c2cc(O[C@H](C)C(=O)N3CCC(F)(F)CC3)ccc12` [Example 80, (R)-7-((1-(4,4-difluoropiperidin-1-yl)-1-oxopropan-2-yl)oxy)-4-(o-tolyl)isoquinolin-1(2H)-one]: the IC50 was found to be 40 nM.
On the same count and under the same terms, to `Cc1ccccc1-c1c[nH]c(=O)c2cc(NC(C)C(N)=O)ccc12` (centres unmarked) [Example 68] belongs 11000 nM; to `C[C@@H](Oc1ccc2c(-c3ccc(F)cc3Cl)c[nH]c(=O)c2c1)C(=O)N1CCS(=N)(=O)CC1` [Example 139, (R)-4-(2-chloro-4-fluorophenyl)-7-((1-(1-imino-1-oxido-1λ^6-thiomorpholino)-1-oxopropan-2-yl)oxy)isoquinolin-1(2H)-one], 2000 nM; to `COCC(Oc1ccc2c(-c3ccccc3C)c[nH]c(=O)c2c1)C(=O)N(C)C` (single isomer, unassigned) [Example 54], above 100000 nM.
`Cc1ccccc1-c1c[nH]c(=O)c2cc(O[C@H](C)C(=O)N3C4CCC3COC4)ccc12` [Example 85, 7-(((2R)-1-(3-oxa-8-azabicyclo[3.2.1]octan-8-yl)-1-oxopropan-2-yl)oxy)-4-(o-tolyl)isoquinolin-1(2H)-one] yielded an IC50 of 20 nM. In other words, the double-digit nanomolar range.
The same measure, in the same setting: in the case of `CCc1ccccc1-c1c[nH]c(=O)c2cc(OCC(N)=O)ccc12` [Example 138, 2-((4-(2-ethylphenyl)-1-oxo-1,2-dihydroisoquinolin-7-yl)oxy)acetamide] it was 12000 nM.

The test is the same for the next values; noted with them: quinolinone compounds (Table 2).
Take `CC(C)Oc1ccc2c(-c3ccc(F)cc3Cl)cc(=O)[nH]c2c1` [Example Q4, 4-(2-chloro-4-fluorophenyl)-7-isopropoxyquinolin-2(1H)-one]: half-maximal inhibition (IC50) was put at 23000 nM. This counts as double-digit micromolar.
`O=c1cc(-c2ccc(F)cc2Cl)c2ccc(O)cc2[nH]1` [Example Q2, 4-(2-chloro-4-fluorophenyl)-7-hydroxyquinolin-2(1H)-one] gave an IC50 above 100000 nM.
